Experimental data: paper PMC8147293, “Library of Selenocyanate and Diselenide Derivatives as In Vivo Antichagasic Compounds Targeting Trypanosoma cruzi Mitochondrion” (Pharmaceuticals, 2021)
Where two headings read alike, the source gives them in different places.

Key:
[1] = system: epimastigotes of T. cruzi Arequipa strain; test: Screening against extracellular epimastigotes (resazurin); type: cell-based, Trypanosoma cruzi; conditions: for Selectivity Index Epimast.: IC50 Vero cells/IC50 epimastigotes; for IC50: Trypanosoma cruzi
Description: Trypanocidal activity against epimastigotes of T. cruzi Arequipa strain (MHOM/Pe/2011/Arequipa, discrete typing unit V) was tested as previously described. In short, 5 × 10^5 epimastigotes·mL^−1 were treated by adding the tested compounds at a concentration range from 100 to 0.2 µM in 96-well microplates (200 µL·well^−1) for 48 h. Subsequently, resazurin sodium salt (Sigma-Aldrich) was added to be incubated for further 24 h. Finally, the absorbance was measured, and the trypanocidal activity was expressed as the IC50 (inhibitory concentration 50) using GraphPad Prism 6 software. Each compound concentration was tested in triplicate in three independent experiments.

[2] = system: Mammalian Vero cells; test: Cytotoxicity test on Vero cells (resazurin); type: cell-based; conditions: Chlorocebus sabaeus; for CC50: 72 h, Table 1, Vero cells, 48 h + 24 h resazurin, read-out: Toxicity IC50 Vero Cell; for IC50: Table S1, cultured Vero cells, read-out: Toxicity IC50 Vero cell
Description: Mammalian Vero cells (EACC No. 84113001), cultured as previously reported, were used to determine the cytotoxicity of the tested compounds [56]. In short, 1.25 × 10^4 Vero cells·mL^−1 were treated by adding the compounds at a concentration range from 400 to 1 µM in 96-well microplates (200 µL·well^−1) at 37 °C for 48 h. Subsequently, resazurin sodium salt (Sigma-Aldrich) was added to be incubated for further 24 h. Finally, cell viability was determined following the same procedure as described to assess the trypanocidal activity in the epimastigotes. Each compound concentration was tested in triplicate in three independent experiments.

[3] = system: Trypanosoma cruzi intracellular amastigotes; test: Screening against intracellular amastigotes in Vero cells (Giemsa counting); type: cell-based; conditions: for Selectivity Index Amast.: IC50 Vero cells/IC50 amastigotes; for IC50: Trypanosoma cruzi, Table 1, intracellular amastigotes in Vero cells, 72 h, read-out: Activity IC50 Amast.
Description: (§1) Trypanocidal activity against amastigotes was determined according to the literature reported previously. […]. […] Each compound concentration was tested in triplicate in four separate determinations.

[4] = system: Trypanosoma cruzi bloodstream trypomastigotes (BTs); test: Screening against bloodstream trypomastigotes (resazurin); type: cell-based; conditions: for Selectivity Index Trypomast.: IC50 Vero cells/IC50 trypomastigotes; for IC50: Trypanosoma cruzi, Table 1, bloodstream trypomastigotes, 24 h treatment + 4 h resazurin, read-out: Activity IC50 Trypomast.
Description: 2 × 10^6 Bloodstream trypomastigotes (BTs), obtained by cardiac puncture from infected BALB/c mice as previously described, were treated by adding the tested compounds at a concentration range from 50 to 0.1 µM in 96-well microplates (200 µL·well^−1) at 37 °C. After 24 h of treatment, resazurin sodium salt (Sigma-Aldrich) was added to be incubated for further 4 h. Finally, trypanocidal activity was determined following the same procedure as described to assess the trypanocidal activity in the epimastigotes. Each compound concentration was tested in triplicate in three independent experiments.

[5] = system: Trypanosoma cruzi amastigotes in Vero cells; test: Infection rate and amastigotes per Vero cell over 10 days; type: cell-based; conditions: IC25 concentrations, measured at 2 days intervals for 10 days
Description: Before going ahead on in vivo trials, the in vitro infection rate and the average number of amastigotes per Vero cell were also measured at 2 days intervals for 10 days after treating the infected cultures with BZN and potential candidates (8, 10, and 15) (Figure 1) at ICH25 concentrations resulting from amastigotes screening. […]. Fast-acting drugs are urgently needed, and this feature is an additional advantage since they can eliminate the parasite in a few doses.
as §1
Figure 1 (A) Percentage of infected Vero cells and (B) number of amastigotes of Trypanosoma cruzi per Vero cell exposed to benznidazole (BZN), 8, 10 and 15. Values constitute means of three separate determinations ± standard deviation. * Significant differences between untreated and treated parasites for α = 0.05. dpi, days post-infection.

[6] = system: Trypanosoma cruzi; test: Parasitemia monitoring in infected BALB/c mice, acute Chagas disease; type: in vivo; conditions: oral 20 mg/kg per day for 5 days from 9th dpi, versus untreated
Description: (§2) Infection was carried out by intraperitoneal inoculation of 5 × 10^5 BTs of T. cruzi per mouse in 0.2 mL PBS [56]. The mice were treated by oral route (~200 µL) once daily for 5 consecutive days. The treatment for mice treated in the acute and chronic phases began when the infection was confirmed (9th day post-infection (dpi)) and was established that the animals had entered the chronic phase (100th dpi), respectively.
(§3) The mice were divided into six groups (n = 3 per group): 0, negative control group (uninfected and untreated mice); I, positive control group (infected and untreated mice); II, BZN group (mice infected and treated with BZN); III, 8 group (mice infected and treated with 8); IV, 10 group (mice infected and treated with 10); V, 15 group (mice infected and treated with 15). The tested compounds and BZN were prepared at 2 mg·mL^−1 in an aqueous suspension vehicle containing 5% (v/v) DMSO and 0.5% (w/v) hydroxypropyl methylcellulose, as previously reported. Therefore, doses of 20 mg·kg^−1 per day were administered for 5 consecutive days, and vehicle only was administered in the negative and positive control groups.
(§4) All in vivo assays for the evaluation of compounds in the acute and chronic CD (Scheme 1)—monitoring of parasitemia, immunosuppression, PCR [59, 60], ELISA [56], and clinical analysis [56]—were performed as previously described. PCR was based on the Spliced Leader (SL) intergenic region sequence of T. cruzi (for detailed description, see literature reported previously).

[7] = system: Trypanosoma cruzi; test: Parasitemia reactivation after immunosuppression in BALB/c mice; type: in vivo; conditions: acute and chronic CD, 20 mg/kg per day for 5 days
Description: Secondly, the experimental cure was determined using a double checking widely used in in vivo trypanocidal trials. This double checking—based on immunosuppression and PCR (Figure 2B,C, respectively)—was performed to evaluate the treatment effectiveness and the disease extent in both acute and chronic CD at the end of the in vivo timeline. The mice whose parasitemia and PCR remain negative after immunosuppression are considered cured.
Immunosuppression enhances the reactivation of any residual infection, which is proportional to the parasite survival rate.
as §2, §3, §4

[8] = system: Trypanosoma cruzi; test: Anti-T. cruzi IgG (ELISA) and splenomegaly in treated BALB/c mice; type: in vivo; conditions: treated BALB/c mice versus untreated; excluding IgG levels of chronic CD
Description: Otherwise, the immune status of the mice was evaluated—through the titer of total anti-T. cruzi IgG and the splenomegaly (Figure S1)—since it is a characteristic linked to the parasite load and the effectiveness ascribed to the potential candidates. […].
as §4
Figure S1. A) Anti-Trypanosoma cruzi immunoglobulin G levels, expressed in absorbance at 492 nm, at different days post-infection (dpi) for each group of mice treated during the acute and chronic phases of Chagas disease: control (untreated), benznidazole (BZN), 8, 10 and 15. Blank and uninfected mice are also […]
included. […] Values are the means of three mice ± standard deviation. (IS) immunosuppression. * Significant differences between untreated and treated mice for α =
0.05. B) Weight percentage of spleens in the chronic Chagas disease for each group of mice treated during the acute and chronic phases of the disease: control (untreated), benznidazole (BZN), 8, 10 and 15. Values are the means of three mice ± standard deviation. In brackets: reduction of splenomegaly in comparison to […]
(1 picture or pasted object on this page, not shown here)

[9] = system: epimastigotes of T. cruzi Arequipa; test: 1H NMR analysis of excreted metabolites; type: cell-based, Trypanosoma cruzi; conditions: IC25 concentrations, 72 h
Description: 5 × 10^5 epimastigotes·mL^−1 of T. cruzi Arequipa were treated by adding the tested compounds at IC25 concentrations in 25 cm^2 cell culture flasks at 28 °C for 72 h. Untreated controls were also included. Cultures were then centrifuged and filtered, and the metabolites of the supernatants were analyzed using a ^1H NMR spectrometer (VARIAN DIRECT DRIVE 500 MHz […]) with AutoX probe, D2O as solvent and 2,2-dimethyl-2-silapentane-5-sulphonate as the reference signal. Chemical shifts were expressed in parts per million (ppm), and analyses were conducted as previously reported.

[10] = system: Trypanosoma cruzi Fe-SOD; test: SOD enzymatic inhibition, Fe-SOD; type: biochemical; conditions: 100 to 0.1 µM
Description: (§5) Excreted Fe-SOD protein—obtained and quantified as previously described [64]—and commercial Cu/Zn-SOD from human erythrocytes (Sigma-Aldrich) were exposed to the tested compounds at a concentration range from 100 to 0.1 µM to determine in vitro activities using the method previously described.

[11] = molecular target: T1, human erythrocytes CuZn-SOD (Homo sapiens, UniProt P00441); test: SOD enzymatic inhibition, CuZn-SOD; type: biochemical; conditions: 100 to 0.1 µM, read-out: CuZn-SOD IC50 (in brackets)
T1 construct: commercial Cu/Zn-SOD from human erythrocytes (Sigma-Aldrich); purchased Sigma-Aldrich; host or cells: human erythrocytes
T1 sequence (P00441 whole entry): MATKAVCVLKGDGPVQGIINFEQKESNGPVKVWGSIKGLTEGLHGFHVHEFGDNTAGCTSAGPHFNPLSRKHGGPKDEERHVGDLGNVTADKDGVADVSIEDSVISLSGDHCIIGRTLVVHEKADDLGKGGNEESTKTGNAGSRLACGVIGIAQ
Description: as §5

[12] = Table 1, T. cruzi epimastigotes, 48 h treatment + 24 h resazurin, read-out: Activity IC50 Epimast.
[13] = Table S1, cultured epimastigote form of T. cruzi, read-out: Activity IC50
[14] = 72 h, Table 1, T. cruzi epimastigotes, 48 h treatment + 24 h resazurin, read-out: Activity IC50 Epimast.

SMILES | Selectivity Index Epimast. [1] | IC50 [1, 13] | CC50 [2] | Selectivity Index Amast. [3] | IC50 [3] | Selectivity Index Trypomast. [4] | IC50 [2] | further results
N#C[Se]Cc1ccccc1[N+](=O)[O-] [compound 15] | 20 | ≤ 10 µM | 17.9 ± 1 µM | 36 | 500 nM | 14 | – | IC50 [1, 12]: 0.9 ± 0.1 µM; IC50 [4]: 1300 ± 300 nM; infection rate and average number of amastigotes per Vero cell [5]: decrease in both infection rate and number of amastigotes per cell in a time-dependent manner; parasitemia levels (counting BTs) during the acute CD [6]: non-significant differences; reactivation of infection after immunosuppression (in words) [7]: non-significant differences; total anti-T. cruzi IgG levels and splenomegaly [8]: Slight or non-significant reductions; excretion of metabolites versus untreated parasites (in words) [9]: strikingly increased; SOD inhibitory activity (in words) [10]: no inhibitory activity; IC50 [11]: > 100 µM
Cn1ccnc1S(=O)(=O)Nc1ccc([Se][Se]c2ccc(NS(=O)(=O)c3nccn3C)cc2)cc1 [compound 47] | 12 | ≤ 10 µM | 44.7 ± 3 µM | 15 | 3000 ± 400 nM | 12 | – | IC50 [1, 14]: 3.6 ± 0.3 µM; IC50 ([4]; 28 h): 3800 ± 400 nM
Cc1ccc(S(=O)(=O)Nc2ccc([Se][Se]c3ccc(NS(=O)(=O)c4ccc(C)cc4)cc3)cc2)cc1 [compound 43] | 13 | ≤ 10 µM | 66.9 ± 6.2 µM | 16 | 4200 ± 700 nM | 18 | – | IC50 [1, 12]: 5.1 ± 0.6 µM; IC50 [4]: 3700 ± 200 nM
Cc1ccc(C[Se]C#N)cc1 [compound 11] | 20 | ≤ 10 µM | 61.3 ± 3.7 µM | 20 | 3100 ± 100 nM | 14 | – | IC50 [1, 12]: 3 ± 0.4 µM; IC50 [4]: 4500 ± 600 nM
N#C[Se]Cc1cccc(C#N)c1 [compound 21] | 22 | ≤ 10 µM | 21.7 ± 1.8 µM | 27 | 800 ± 100 nM | 24 | – | IC50 [1, 12]: 1 ± 0.2 µM; IC50 [4]: 900 ± 100 nM
N#Cc1ccccc1C[Se][Se]Cc1ccccc1C#N [compound 20] | 13 | ≤ 10 µM | 16.4 ± 0.5 µM | 16 | 1000 ± 100 nM | 18 | – | IC50 [1, 14]: 1.3 ± 0.2 µM; IC50 ([4]; 28 h): 900 nM
O=[N+]([O-])c1cccc(C[Se][Se]Cc2cccc([N+](=O)[O-])c2)c1 [compound 18] | – | 1.5 ± 0.3 µM | – | – | – | – | 7.3 ± 1.1 µM | –
N#C[Se]Cc1cccc([N+](=O)[O-])c1 [compound 17] | – | 37.4 ± 2.6 µM | – | – | – | – | 81.2 ± 4.8 µM | –
O=S(=O)(Nc1ccc([Se][Se]c2ccc(NS(=O)(=O)c3ccc(-c4ccccc4)cc3)cc2)cc1)c1ccc(-c2ccccc2)cc1 [compound 46] | 18 | ≤ 10 µM | 48.6 ± 3.5 µM | 21 | 2300 ± 100 nM | 24 | – | IC50 [1, 14]: 2.7 ± 0.8 µM; IC50 ([4]; 28 h): 2000 ± 300 nM
N#C[Se]Cc1ccc(C(F)(F)F)cc1 [compound 7] | – | 34.1 ± 2.6 µM | – | – | – | – | 50.5 ± 3.8 µM | –
c1ccc(C[Se][Se]Cc2ccccc2)cc1 [compound 4] | – | 35.4 ± 3.6 µM | – | – | – | – | 26.8 ± 1.3 µM | –
COc1cc2oc(=O)cc(C[Se]C#N)c2cc1OC [compound 30] | – | 30.9 ± 1.4 µM | – | – | – | – | 109 ± 10.5 µM | –
O=[N+]([O-])c1ccc(S(=O)(=O)Nc2ccc([Se][Se]c3ccc(NS(=O)(=O)c4ccc([N+](=O)[O-])cc4)cc3)cc2)cc1 [compound 39] | – | 17.1 ± 1.3 µM | – | – | – | – | 11.7 ± 2.7 µM | –
O=S(=O)(Nc1ccc([Se][Se]c2ccc(NS(=O)(=O)c3ccccc3F)cc2)cc1)c1ccccc1F [compound 37] | – | 46.1 ± 3.1 µM | – | – | – | – | 39.6 ± 3.1 µM | –
O=S(=O)(Nc1ccc([Se][Se]c2ccc(NS(=O)(=O)c3ccc(Cl)cc3)cc2)cc1)c1ccc(Cl)cc1 [compound 34] | – | 41.3 ± 2.1 µM | – | – | – | – | 29.8 ± 3.4 µM | –
